Measurements published in ChEMBL document CHEMBL1131383, “Syntheses and biological evaluation of indolocarbazoles, analogues of rebeccamycin, modified at the imide heterocycle” (J Med Chem, 1998).
≈ marks a conversion by molar mass, not a printed value.

Columns and labels:
CEM-SS [1] = test: Cytotoxic concentration is tested against CEM-SS cells; format: functional; settings: Homo sapiens
Protein kinase C (PKC) = test: Inhibition of Protein kinase C; format: protein assay
Bacillus cereus [2] = test: Antimicrobial activity is tested against Bacillus cereus; format: functional
CEM-SS [3] = test: Inhibitory concentration is tested in HIV-1 Lai-infected CEM-SS cells; format: functional, cell-based; settings: Homo sapiens
P388 = test: Antiproliferative activity measured against P388 Leukemia cells; format: functional, cell-based, Mus musculus
[4] = target: T1, DNA topoisomerase 1 (Homo sapiens) (UniProt P11387); test: Inhibition of human Topoisomerase I
T1 sequence (whole entry): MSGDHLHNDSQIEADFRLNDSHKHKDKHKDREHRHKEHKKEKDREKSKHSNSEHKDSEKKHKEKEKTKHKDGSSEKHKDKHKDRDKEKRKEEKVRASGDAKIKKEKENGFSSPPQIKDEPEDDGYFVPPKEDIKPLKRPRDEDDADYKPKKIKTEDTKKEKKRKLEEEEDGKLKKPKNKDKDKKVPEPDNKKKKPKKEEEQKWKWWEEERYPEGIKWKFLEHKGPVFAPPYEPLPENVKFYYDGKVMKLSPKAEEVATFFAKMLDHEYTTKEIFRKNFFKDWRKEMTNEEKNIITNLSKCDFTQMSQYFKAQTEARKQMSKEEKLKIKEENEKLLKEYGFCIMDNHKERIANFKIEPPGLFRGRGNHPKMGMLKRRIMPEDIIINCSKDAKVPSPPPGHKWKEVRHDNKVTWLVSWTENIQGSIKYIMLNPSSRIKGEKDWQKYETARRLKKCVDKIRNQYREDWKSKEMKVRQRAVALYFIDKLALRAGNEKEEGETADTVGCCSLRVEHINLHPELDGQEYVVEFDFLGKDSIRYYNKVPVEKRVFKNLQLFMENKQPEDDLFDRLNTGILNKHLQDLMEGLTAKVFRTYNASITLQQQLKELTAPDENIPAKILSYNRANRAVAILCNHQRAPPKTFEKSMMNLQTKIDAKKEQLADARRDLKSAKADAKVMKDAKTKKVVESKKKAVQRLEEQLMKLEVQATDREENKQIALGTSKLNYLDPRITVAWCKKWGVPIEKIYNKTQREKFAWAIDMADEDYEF

[5] = Selectivity was measured [Selectivity = (CC50/IC50) against HIV-1 infected CEM-SS cells]; format: functional
P388CPT5 = test: Antiproliferative activity measured against P388CPT5 cells resistant to Topoisomerase I inhibitor Camptothecin; format: functional, cell-based; settings: Mus musculus
B16 = test: Antiproliferative activity measured against murine B16 melanoma cells; format: functional, cell-based; settings: Mus musculus
Bacillus cereus [6] = test: In Vitro growth inhibitory effect of compounds against Gram-Positive Bacteria Bacillus cereus ATCC 14579; format: functional
Streptomyces chartreusis = test: In Vitro growth inhibitory effect of compounds against Gram-Positive Bacteria Streptomyces chartreusis NRRL11407; format: functional

SMILES	IC50 (Protein kinase C (PKC))	MIC (Bacillus cereus [2])	IC50 (CEM-SS [3])	IC50 (P388; Mus musculus, P388)	MIC [4]	IC50 (P388CPT5)	IC50 (B16)	IC50 (P388; p388)	CC50 (CEM-SS [1])	Selectivity index [5]	Inhibition zone (Bacillus cereus [6])	Inhibition zone (Streptomyces chartreusis)
CO[C@H]1[C@H](O)[C@@H](O)[C@H](n2c3ccccc3c3c4c(c5c6ccccc6[nH]c5c32)C(=O)N(C)C4)O[C@@H]1CO.CO[C@H]1[C@H](O)[C@@H](O)[C@H](n2c3ccccc3c3c4c(c5c6ccccc6[nH]c5c32)CN(C)C4=O)O[C@@H]1CO		24 µM	0.6 µM	3.39 µM	19.9 µM	> 19.9 µM	5 µM		8.38 µM	14	9 mm	9 mm
CO[C@H]1[C@H](O)[C@@H](O)[C@H](n2c3ccccc3c3c4c(c5c6ccccc6[nH]c5c32)C(=O)N(C)C4=O)O[C@@H]1CO	> 100 µM	1.55 µM (≈ 0.799 µg/mL)	4.17 µM	1.06 µM		0.7 µM			7.96 µM	1.9		
CO[C@H]1[C@H](O)[C@@H](O)[C@H](n2c3ccccc3c3c4c(c5c6ccccc6[nH]c5c32)C(=O)NC4=O)O[C@@H]1CO		> 100 µM	0.16 µM	0.69 µM	0.59 µM (≈ 0.296 µg/mL)	> 20 µM	0.9 µM		0.9 µM	5.6	7 mm	
CO[C@H]1[C@H](O)[C@@H](O)[C@H](n2c3ccccc3c3c4c(c5c6ccccc6n(C)c5c32)C(=O)OC4=O)O[C@@H]1CO		> 97 µM	> 9.7 µM	> 19 µM	> 19 µM		31 µM		> 9.7 µM			7 mm
CO[C@H]1[C@H](O)[C@@H](O)[C@H](n2c3ccccc3c3c4c(c5c6ccccc6n(C)c5c32)C(=O)N(C)C4=O)O[C@@H]1CO		94 µM (≈ 49.8 µg/mL)	> 19 µM	> 19 µM	> 19 µM		8 µM		> 19 µM		8 mm	12 mm
CO[C@H]1[C@H](O)[C@@H](O)[C@H](n2c3c(Cl)cccc3c3c4c(c5c6cccc(Cl)c6[nH]c5c32)C(=O)N(C)C4)O[C@@H]1CO.CO[C@H]1[C@H](O)[C@@H](O)[C@H](n2c3c(Cl)cccc3c3c4c(c5c6cccc(Cl)c6[nH]c5c32)CN(C)C4=O)O[C@@H]1CO		> 88 µM	0.31 µM	0.52 µM	17.6 µM	4.03 µM	0.48 µM		1.72 µM	5.5		9 mm
CO[C@H]1[C@H](O)[C@@H](O)[C@H](n2c3ccccc3c3c4c(c5c6ccccc6[nH]c5c32)C(=O)OC4=O)O[C@@H]1CO		> 99 µM	> 1.98 µM	6.36 µM	1.99 µM (≈ 1 µg/mL)	> 20 µM	17.5 µM		> 1.98 µM			7 mm

Now from value to compound, other results behind:

IC50 (Protein kinase C (PKC))	MIC (Bacillus cereus [2])	IC50 (CEM-SS [3])	IC50 (P388; Mus musculus, P388)	MIC [4]	IC50 (P388CPT5)	IC50 (B16)	IC50 (P388; p388)	SMILES	CC50 (CEM-SS [1])	Selectivity index [5]	Inhibition zone (Bacillus cereus [6])	Inhibition zone (Streptomyces chartreusis)
28.8 µM	5.6 µM	0.36 µM	> 125 µM	1.8 µM	3 µM			CO[C@H]1[C@H](O)[C@@H](O)[C@H](n2c3c(Cl)cccc3c3c4c(c5c6cccc(Cl)c6[nH]c5c32)C(=O)NC4)O[C@@H]1CO.CO[C@H]1[C@H](O)[C@@H](O)[C@H](n2c3c(Cl)cccc3c3c4c(c5c6cccc(Cl)c6[nH]c5c32)CNC4=O)O[C@@H]1CO	1.15 µM	3.2		
	10.9 µM (≈ 6.22 µg/mL)	0.52 µM	1.22 µM		10.5 µM			CO[C@H]1[C@H](O)[C@@H](O)[C@H](n2c3c(Cl)cccc3c3c4c(c5c6cccc(Cl)c6[nH]c5c32)C(=O)NC4=O)O[C@@H]1CO [REBECCAMYCIN]	1.05 µM	2	9 mm	9 mm
	> 75 µM	4.85 µM	0.91 µM	1.52 µM (≈ 1 µg/mL)	7.58 µM	13 µM		CO[C@H]1[C@H](O)[C@@H](O)[C@H](n2c3ccc(Br)cc3c3c4c(c5c6cc(Br)ccc6[nH]c5c32)C(=O)OC4=O)O[C@@H]1CO	9.39 µM	1.9		
	> 94 µM	> 9.4 µM	> 19 µM	5.7 µM (≈ 3.02 µg/mL)				CO[C@H]1[C@H](OC=O)[C@@H](O)[C@H](n2c3ccccc3c3c4c(c5c6ccccc6[nH]c5c32)C(=O)OC4=O)O[C@@H]1CO	> 9.4 µM		8 mm	12 mm
> 100 µM	> 85 µM	5.06 µM			0.6 µM		0.61 µM	CO[C@H]1[C@H](O)[C@@H](O)[C@H](n2c3c(Cl)cccc3c3c4c(c5c6cccc(Cl)c6[nH]c5c32)C(=O)N(C)C4=O)O[C@@H]1CO (stereo in doubt; A)	8.06 µM	1.6		
3.7 µM	25 µM	4.1 µM		0.02 µM	3 µM			CO[C@H]1[C@H](O)[C@@H](O)[C@H](n2c3ccccc3c3c4c(c5c6ccccc6[nH]c5c32)C(=O)NC4)O[C@@H]1CO.CO[C@H]1[C@H](O)[C@@H](O)[C@H](n2c3ccccc3c3c4c(c5c6ccccc6[nH]c5c32)CNC4=O)O[C@@H]1CO	14.3 µM	3.5		
